Patent publication US20210251226A1, “METHOD AND COMPOSITION FOR INHIBITING THE GROWTH OF PSEUDOMONAS SYRINGAE ON A PLANT MATERIAL, AND KIT FOR TREATING THE SAME” (City University of Hong Kong, priority 2020, published 2021)

Experiments:
[1] = system: wild-type P. syringae pv. tomato; details: 6 day post inoculation
Experimental: To study the effect of concentration of NaAc on inhibiting growth of P. syringae, 2×10^4 CFU/ml of wild-type P. syringae pv. tomato bacteria were injected into the tomato leaves. Then, the inoculated leaves were sprayed with water and 0.1-100 mM NaAc. Three 1 cm^2 leaf disks at 6 day post inoculation were homogenated and diluted in water to count bacterial CFUs.

P. syringae [2] = test: Toxicity to P. syringae liquid culture (CFU count); details: liquid culture treated 2 hours
Experimental: To study whether the optimized NaAc recipe is toxic to P. syringae, a P. syringae liquid culture was treated with 0.1 mM FeAc, 100 mM NaAc, and the optimized recipe (1 mM NaAc and 0.1 mM FeAc) respectively for 2 hours. The treated and control (untreated) cultures were then diluted for counting bacterial CFUs.

bean leaf = test: Toxicity to host plant leaves after injection
Experimental: Furthermore, to study whether the optimized NaAc recipe is toxic to a host plant, aqueous solutions of 0.1 mM FeAc, 100 mM NaAc, and the optimized recipe (1 mM NaAc and 0.1 mM FeAc) were respectively injected into tomato and bean leaves and inoculated for 6 days.

wild-type P. syringae [3] = system: wild-type P. syringae
wild-type P. syringae [4] = details: 10 mM NaAc, 6 days after inoculation, 2×10^4 CFU/ml
hrpL = test: hrpL-lux activity (hrpL expression) in wild-type P. syringae; type: cell-based; details: 1 mM of each salt
Experimental: To study the inhibitory effect of different acetate salts to inhibit P. syringae, 1 mM of 12 acetate salts was tested on the expression of hrpL, namely on hrpL-lux activities, in the wild-type P. syringae. The 12 acetate salts included acetate salts of lithium (Li), potassium (K), magnesium (Mg), sodium (Na), calcium (Ca), manganese (Mn), aluminium (Al), nickel (Ni), acetic acid (denoted as HAc), copper (Cu), ammonium (NH4), and iron (Fe).

P. syringae [5] = details: conventional agent, comparison; cited from earlier work

## CC(=O)[O-].[Na+] [NaAc, sodium acetate]
[1]; tomato leaf, 0.1-100 mM spray, P<0.05
  difference in bacterial CFU between water control and NaAc spray: significant
[1]; tomato, of concentrations from 0.1 mM to 100 mM
  best concentration for reducing bacterial growth: 100 mM
P. syringae [2]
  toxicity to P. syringae: not toxic
Bean leaf; injected into leaf, 6 days
  toxicity to host plant leaf: not toxic
Bean leaf; plant
  toxicity or resistance on plant: no toxicity or resistance on plant
wild-type P. syringae [3]; 10 mM NaAc, 6 days after inoculation, 2×10^4 CFU/ml
  bacterial pathogenicity (disease symptoms) on tomato leaf: significantly reduced bacterial pathogenicity
wild-type P. syringae [3]; host plant not named at this place
  concentration removing infection symptom: 10 mM
wild-type P. syringae [4]
  bacterial pathogenicity (disease symptoms) on bean leaf: significantly reduced bacterial pathogenicity

## CC(=O)[O-].CC(=O)[O-].[Fe+2] [iron acetate]
hrpL
  inhibitory effect on hrpL-lux activities, rank among 12 acetate salts: best inhibitory effect

## O=S(=O)([O-])[O-].[Cu+2] [copper sulfate]
P. syringae [5]
  minimum inhibitory concentration (MIC): 3000 µM

## [H]/N=C(/N)N[C@H]1[C@H](O)[C@@H](O)[C@H](O[C@@H]2O[C@@H](C)[C@](O)(C=O)[C@H]2O[C@@H]2O[C@@H](CO)[C@H](O)[C@@H](O)[C@@H]2NC)[C@@H](N/C(N)=N\[H])[C@@H]1O [streptomycin]
P. syringae [5]
  minimum inhibitory concentration (MIC): 1000 µg/mL
